Reference: paper PMC4352855 (Scientific Reports, 2015)
“Also recorded” adds a separate entry of the source.

How the values were obtained:
[1] = target: T1, V428A-LLO (Listeria monocytogenes serovar 1/2a, UniProt P13128, V428A); type: biochemical; details: mutant V428A compared with LLO, Fig. 2b
T1 construct: His6 (C); made in house; host or cells: Escherichia coli BL21(DE3)

[2] = target: T2, S467A-LLO (Listeria monocytogenes serovar 1/2a, UniProt P13128, S467A); type: biochemical; details: mutant S467A compared with LLO, Fig. 2b
T2 construct: His6 (C); made in house; host or cells: Escherichia coli BL21(DE3)

[3] = target: T3, S466A-LLO (Listeria monocytogenes serovar 1/2a, UniProt P13128, S466A); type: biochemical; details: mutant S466A compared with LLO, Fig. 2b
T3 construct: His6 (C); made in house; host or cells: Escherichia coli BL21(DE3)

[4] = target: T4, Y427A-LLO (Listeria monocytogenes serovar 1/2a, UniProt P13128, Y427A); type: biochemical; details: mutant Y427A compared with LLO, Fig. 2b
T4 construct: His6 (C); made in house; host or cells: Escherichia coli BL21(DE3)

[5] = target: T5, LLO (Listeria monocytogenes serovar 1/2a, UniProt P13128); details: cited from earlier work
T5 construct: His6 (C); made in house; host or cells: Escherichia coli BL21(DE3)

[6] = system: L. monocytogenes; details: cited from earlier work

| Compound | sensitivity to Myr in the inhibition of hemolytic activity [1] | sensitivity to Myr in the inhibition of hemolytic activity [2] | sensitivity to Myr in the inhibition of hemolytic activity [3] | sensitivity to Myr in the inhibition of hemolytic activity [4] | effect on hemolytic activity of LLO [5] | antimicrobial activity [6] |
| --- | --- | --- | --- | --- | --- | --- |
| O=c1c(O)c(-c2cc(O)c(O)c(O)c2)oc2cc(O)cc(O)c12 [Myr, myricetin] | less sensitive | less sensitive | less sensitive | less sensitive | – | – |
| O=c1c(O)c(-c2ccc(O)c(O)c2)oc2cc(O)ccc12 [fisetin] | – | – | – | – | inhibit its hemolytic activity; also recorded: attenuating the hemolytic activity of LLO | without antimicrobial activity; also recorded: without anti-bacterial activity |
